In patent US20110112097A1, “Substituted imidazoline-2,4-diones, process for preparation thereof, medicaments comprising these compounds and use thereof” (SANOFI-AVENTIS, priority 2008, published 2011):
Structures can show the parent of a compound that is named as a salt. Where two headings read alike, the source gives them in different places.

Key:
hCB1R [1] = target: T1, hCB1R (Homo sapiens, UniProt P21554); test: Binding to the CB1 receptor ([3H]-SR141716A displacement)
Method: Binding to the CB1 Receptor:
Test compounds: The compounds (3 μl, 10 mM, 100% DMSO), pipetted into 96-well PP microtiter plates, were diluted with 27 μl of 100% DMSO (dimethyl sulfoxide). Proceeding from this solution, further 3-fold dilution steps were undertaken by transferring 10 μl in each case to a new PP microtiter plate and adding a further 20 μl of 100% DMSO. In each case 6 μl of these solutions were transferred into new 96-well PP microtiter plates and made up with 144 μl of assay buffer. The end concentrations ranged from 10 μM to 0.005 μM.
Negative control: AM 251, dissolved in assay buffer with 1% DMSO, was added to the dilution series in the microtiter plates as a control. The end concentration was 1 μM.
Blank control: assay buffer with 1% DMSO was added to the dilution series of the microtiter plates as a blank control.
Summary of the Assay Parameters:
High control: ^3H binding without addition of the compound Low control: ^3H binding in the presence of 1 μM AM 251
The values were calculated using the corrected raw data.
The values reported were obtained as average values of a double determination. The IC50 values were calculated from the measurements with the program Xlfit, formula 205. Ki values were obtained from the IC50 and Kd values utilizing the Cheng-Prusoff equation:
[formula] • Literature: Cheng, Y.-C., and Prusoff, W. H. (1973) Biochem. Pharmacol 22, 3099-3108

hCB2R = target: T2, hCB2R (Homo sapiens, UniProt P34972); test: In vitro functional assay with recombinant cells (FLIPR, intracellular Ca2+), CB2; format: cell-based; conditions: recombinant HEK293 cells expressing CB2 and G-protein Galpha16; 20 min preincubation, then reference agonist; Ca2+ change (Fluo-4)
T2 construct: expressed in transfected cells; host or cells: HEK293
Method: (§1) In vitro functional assays with recombinant cells:
(§2) Function-testing assays were performed by means of the FLIPR technique (“Fluorometric Imaging Plate Reader”, Molecular Devices Corp.).
(§3) To this end, ligand-induced changes in the intracellular concentration of Ca^2+ in recombinant HEK293 cells, which expressed both a cannabinoid receptor (CB1 or CB2) and G-protein Galpha16, were determined. For the studies, cells were sown into 96-well microtiter plates (60 000 cells/well) and left to grow overnight. The medium was removed and the cells were incubated in buffer which contained the fluorescent dye Fluo-4. After this loading with dye, the cells were washed, test substance was added dissolved in buffer, the mixture was incubated for 20 minutes, a known cannabinoid receptor agonist as a reference agonist was added in buffer and, finally, the changes in the intracellular Ca^2+ concentration were measured in the FLIPR unit.
Results were presented as the percentage change relative to the control (0%: analogous experiment without test substance and without reference agonist, i.e. only with buffer; 100%: analogous experiment without test substance, but with reference agonist in excess), and used to calculate dose/action curves, and IC50 values were determined

hCB1R [2] = target: T1, hCB1R; test: In vitro functional assay with recombinant cells (FLIPR, intracellular Ca2+), CB1; format: cell-based; design: expressed in transfected cells; host or cells: HEK293
Method: as §1, §2, §3

[3] = CHO-K1/cannabinoid CB1 protein 2 μg/well, [3H]-SR141716A 0.5 nM, Ki from IC50 by Cheng-Prusoff, average of double determination, read-out: hCB1R, binding Ki
[4] = recombinant HEK293 cells expressing CB1 and G-protein Galpha16, 20 min preincubation, then reference agonist, Ca2+ change (Fluo-4), read-out: hCB1R: FLIPR, IC50

T1 sequence (P21554 whole entry): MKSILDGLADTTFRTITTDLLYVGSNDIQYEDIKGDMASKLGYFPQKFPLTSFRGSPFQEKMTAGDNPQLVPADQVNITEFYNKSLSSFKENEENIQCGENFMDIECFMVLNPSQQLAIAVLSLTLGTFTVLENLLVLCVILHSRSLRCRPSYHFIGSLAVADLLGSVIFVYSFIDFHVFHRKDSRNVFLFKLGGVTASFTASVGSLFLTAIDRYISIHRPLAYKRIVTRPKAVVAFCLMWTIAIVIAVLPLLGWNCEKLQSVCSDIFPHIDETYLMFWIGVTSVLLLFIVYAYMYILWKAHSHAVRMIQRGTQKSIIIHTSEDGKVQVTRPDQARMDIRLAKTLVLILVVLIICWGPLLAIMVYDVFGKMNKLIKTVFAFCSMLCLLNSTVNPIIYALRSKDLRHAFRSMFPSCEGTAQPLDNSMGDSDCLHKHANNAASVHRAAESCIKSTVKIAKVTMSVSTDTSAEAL
T2 sequence (P34972 whole entry): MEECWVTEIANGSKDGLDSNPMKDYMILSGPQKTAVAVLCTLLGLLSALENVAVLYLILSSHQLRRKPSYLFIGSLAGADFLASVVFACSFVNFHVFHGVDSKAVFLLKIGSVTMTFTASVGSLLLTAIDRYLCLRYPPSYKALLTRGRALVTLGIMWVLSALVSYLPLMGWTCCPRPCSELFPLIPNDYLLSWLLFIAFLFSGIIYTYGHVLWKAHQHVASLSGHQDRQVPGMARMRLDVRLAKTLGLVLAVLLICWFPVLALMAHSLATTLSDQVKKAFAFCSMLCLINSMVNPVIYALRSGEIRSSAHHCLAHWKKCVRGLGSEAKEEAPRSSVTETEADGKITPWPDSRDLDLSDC

Row | Structure (SMILES) | Ki (hCB1R [1]; [3]) [nM] | also measured
1 | CC1(C)C(=O)N(c2cc(C(F)(F)F)ccc2F)C(=O)N1Cc1ccccc1Cc1ccccc1 [Example 11] | 132 | –
2 | CN1CCC2(CC1)C(=O)N(c1ccc(C#N)c(C(F)(F)F)c1)C(=O)N2Cc1ccccc1Cc1ccccc1 [Example 111, 4-[1-(2-Benzylbenzyl)-8-methyl-2,4-dioxo-1,3,8-triazaspiro[4.5]dec-3-yl]-2-trifluoromethylbenzo-nitrile; trifluoroacetate] | 61 | –
3 | CC(C)(C)c1cc(N2C(=O)N(Cc3ccccc3Cc3ccccc3)C(C)(C)C2=O)ccc1C#N [Example 118, 4-[3-(2-Benzylbenzyl)-4,4-dimethyl-2,5-dioxo-imidazolidin-1-yl]-2-tert-butylbenzonitrile] | – | IC50 (hCB2R): > 10000 nM; Ki (hCB1R [1]): 5 nM; IC50 (hCB1R [2]; [4]): 114 nM
4 | CC1(C)C(=O)N(c2cccc(C(F)(F)F)c2)C(=O)N1Cc1ccccc1Cc1ccccc1 [Example 7] | 95 | –
5 | CC1(C)C(=O)N(c2ccnc(C(F)(F)F)c2)C(=O)N1Cc1ccccc1Cc1ccccc1 [Example 119, 1-(2-Benzylbenzyl)-5,5-dimethyl-3-(2-trifluoromethylpyridin-4-yl)imidazolidine-2,4-dione; hydrochloride] | 23 | IC50 (hCB1R [2]): 97 nM
6 | N#Cc1ccc(N2C(=O)N(Cc3ccccc3Cc3ccccc3)C3(CCCC3)C2=O)cc1C(F)(F)F [Example 106, 4-[1-(2-Benzylbenzyl)-2,4-dioxo-1,3-diazaspiro[4.4]-non-3-yl]-2-trifluoro-methylbenzonitrile] | – | IC50 (hCB2R): > 10000 nM; Ki (hCB1R [1]): 11 nM; IC50 (hCB1R [2]): 76 nM
7 | N#Cc1ccc(N2C(=O)N(Cc3ccccc3Cc3ccccc3)C3(CCC3)C2=O)cc1C(F)(F)F [Example 107, 4-[5-(2-Benzylbenzyl)-6,8-dioxo-5,7-diazaspiro[3.4]-oct-7-yl]-2-trifluoro-methylbenzonitrile] | – | IC50 (hCB2R): > 10000 nM; Ki (hCB1R [1]): 12 nM; IC50 (hCB1R [2]): 43 nM
8 | CSc1cccc(N2C(=O)N(Cc3ccccc3Cc3ccccc3)C(C)(C)C2=O)c1 [Example 4] | 217 | –
9 | CC1(C)C(=O)N(c2ccnc(Cl)c2)C(=O)N1Cc1ccccc1Cc1ccccc1 [Example 117, 1-(2-Benzylbenzyl)-3-(2-chloropyridin-4-yl)-5,5-dimethylimidazolidine-2,4-dione] | 94 | –
10 | N#Cc1ccc(N2C(=O)N(Cc3ccccc3Cc3ccccc3)C3(CCCCC3)C2=O)cc1C(F)(F)F [Example 114, 4-[1-(2-Benzylbenzyl)-2,4-dioxo-1,3-diazaspiro[4.5]dec-3-yl]-2-trifluoromethylbenzonitrile] | 63 | –
11 | CC1(C)C(=O)N(c2ccc(F)c(C(F)(F)F)c2)C(=O)N1Cc1ccccc1Cc1ccccc1 [Example 79] | – | IC50 (hCB2R): > 10000 nM; Ki (hCB1R [1]): 44 nM; IC50 (hCB1R [2]; [4]): 103 nM
12 | CC1(C)C(=O)N(c2ccc(F)c(F)c2)C(=O)N1Cc1ccccc1Cc1ccccc1 [Example 41] | 188 | –
13 | CC1(C)C(=O)N(c2ccc(C#N)nc2)C(=O)N1Cc1ccccc1Cc1ccccc1 [Example 123, 543-(2-Benzylbenzyl)-4,4-dimethyl-2,5-dioxo-imidazolidin-1-yl]pyridine-2-carbonitrile; hydrochloride] | 140 | –
14 | COC(=O)c1ccc(Cc2ccccc2CN2C(=O)N(c3ccc(F)c(C(F)(F)F)c3)C(=O)C2(C)C)cc1 [Example 144, methyl 4-{2-[3-(4-fluoro-3-trifluoromethylphenyl)-5,5-dimethyl-2,4-dioxoimidazolidin-1-ylmethyl]benzyl}benzoate] | 37 | –
15 | CC1(C)C(=O)N(c2cc(Cl)cc(Cl)c2)C(=O)N1Cc1ccccc1Cc1ccccc1 [Example 65] | 153 | –
16 | CC1(C)C(=O)N(c2ccc(C#N)c(C(F)(F)F)c2)C(=O)N1Cc1ccc(F)cc1C(=O)c1ccc(Cl)cc1 [Example 139, 4-{3-[2-(4-Chloro-benzoyl)-4-fluorobenzyl]-4,4-dimethyl-2,5-dioxo-imidazolidin-1-yl}-2-trifluoromethylbenzonitrile] | 77 | –
17 | CC1(C)C(=O)N(c2ccc(C#N)c(C(F)(F)F)c2)C(=O)N1Cc1ccc(F)cc1C(=O)c1ccc(C#N)cc1 [Example 150, 4-{3-[2-(4-Cyano-benzoyl)-4-fluorobenzyl]-4,4-dimethyl-2,5-dioxo-imidazolidin-1-yl}-2-tri-fluoromethylbenzonitrile] | 18 | IC50 (hCB1R [2]): 11 nM
18 | CC1(C)C(=O)N(c2cccc(SC(F)(F)F)c2)C(=O)N1Cc1ccccc1Cc1ccccc1 [Example 13] | 66 | –
19 | N#Cc1ccc(N2C(=O)N(Cc3ccccc3Cc3ccccc3)C3(CCCCCC3)C2=O)cc1C(F)(F)F [Example 116, 4-[1-(2-Benzylbenzyl)-2,4-dioxo-1,3-diazaspiro[4.6]undec-3-yl]-2-trifluoromethylbenzonitrile] | 26 | –
20 | CC1(C)C(=O)N(c2ccc(C#N)c(S(F)(F)(F)(F)F)c2)C(=O)N1Cc1ccccc1Cc1ccccc1 [Example 102, 4-[3-(2-Benzylbenzyl)-4,4-dimethyl-2,5-dioxo-imidazolidin-1-yl]-2-pentafluorosulfanyl-benzonitrile] | 19 | IC50 (hCB1R [2]): 45 nM
21 | CC1(C)C(=O)N(c2ccc(C#N)c(C(F)(F)F)c2)C(=O)N1Cc1ccc(C(=O)c2ccccc2)cc1 [Example 132, 4-[3-(4-benzoylbenzyl)-4,4-dimethyl-2,5-dioxo-imidazolidin-1-yl]-2-trifluoromethylbenzonitrile] | – | IC50 (hCB2R): > 10000 nM; Ki (hCB1R [1]): 74 nM; IC50 (hCB1R [2]; [4]): 103 nM
22 | COC(=O)c1ccc(C(=O)c2ccc(CN3C(=O)N(c4ccc(F)c(C(F)(F)F)c4)C(=O)C3(C)C)cc2)cc1 [Example 151, Methyl 4-{4-[3-(4-fluoro-3-trifluoromethylphenyl)-5,5-dimethyl-2,4-dioxo-imidazolidin-1-ylmethyl]-benzoyl}benzoate] | 62 | –
23 | COC(=O)c1ccc(Cc2ccccc2CN2C(=O)N(c3ccc(C#N)c(C(F)(F)F)c3)C(=O)C2(C)C)cc1 [Example 143, methyl 4-{2-[3-(4-cyano-3-trifluoromethylphenyl)-5,5-dimethyl-2,4-dioxoimidazolidin-1-ylmethyl]benzyl}benzoate] | 13 | IC50 (hCB1R [2]): 65 nM
24 | CC1(C)C(=O)N(c2ccc(Cl)c(Cl)c2)C(=O)N1Cc1ccccc1Cc1ccccc1 [Example 64] | 97 | –
25 | CC1(C)C(=O)N(c2ccc(Oc3ccc(Cl)cc3)c(C(F)(F)F)c2)C(=O)N1Cc1ccccc1Cc1ccccc1 [Example 101, 1-(2-Benzylbenzyl)-3-[4-(4-chlorophenoxy)-3-trifluoromethylphenyl]-5,5-dimethylimidazolidine-2,4-dione] | 99 | –
26 | CC1(C)C(=O)N(c2cccc(C#N)c2)C(=O)N1Cc1ccccc1Cc1ccccc1 [Example 16] | 174 | –
27 | CC1(C)C(=O)N(c2ccc(C#N)c(C(F)(F)F)c2)C(=O)N1Cc1ccccc1Cc1ccccc1 [Example 88, 4-[3-(2-benzylbenzyl)-4,4-dimethyl-2,5-dioxoimidazolidin-1-yl]-2-trifluoromethylbenzonitrile] | – | IC50 (hCB2R): > 30000 nM; Ki (hCB1R [1]): 2 nM; IC50 (hCB1R [2]): 13 nM
28 | CC1(C)C(=O)N(c2ccc(C#N)c(C(F)(F)F)c2)C(=O)N1Cc1ccc(F)cc1C(=O)c1ccc(C(F)(F)F)cc1 [Example 155, 4-{3-[4-Fluoro-2-(4-trifluoromethylbenzoyl)-benzyl]-4,4-dimethyl-2,5-dioxoimidazolidin-1-yl}-2-trifluoromethylbenzonitrile] | 69 | –
29 | CCc1cccc(N2C(=O)N(Cc3ccccc3Cc3ccccc3)C(C)(C)C2=O)c1 [Example 1, 1-(2-Benzylbenzyl)-3-(3-ethylphenyl)-5,5-dimethylimidazolidine-2,4-dione] | 218 | –
